Consider five compounds from patent US4322411A, “Anti-inflammatory nucleosides” (Burroughs Wellcome Co., priority 1980, dated 1982).

Read-outs that look alike come from different tables or passages of the source. Bounds are passed on as bounds.

Series [1] deals with established adjuvant arthritis. Nature of the series: Established adjuvant arthritis. The series is classed as in vivo, rat. To be noted: for ED25: Rattus norvegicus, po, 1008 h, read-out: Established Arthritis ED25 on Day 42. Here is the method:
(§1) There were 5 animals in each drug-treated group. For developing adjuvant arthritis the drugs were administered in the diet from day 1 to day 16. For established adjuvant arthritis the drugs were administered from day 21 to day 42.

Series [2] relates to developing adjuvant arthritis. The series can be described thus: Developing adjuvant arthritis. The series is classed as in vivo, rat. To be noted: for ED50: Rattus norvegicus, po, 384 h, read-out: Developing Arthritis ED50 on Day 16. Here is the method:
as §1

Series [3] is described as follows: Therapeutic index. As to conditions: in vivo.
The test system of series [4] is inflammation. The series can be described thus: Anti-inflammatory effectiveness by route. The class given is in vivo. As to conditions: result in words.
The test system of series [5] is lipoxygenase pathway. Nature of the series: Inhibition of prostaglandin metabolism in vitro, lipoxygenase pathway. The series is classed as biochemical.
Series [6] has as its system cyclooxygenase pathway. The series can be described thus: Inhibition of prostaglandin metabolism in vitro, cyclooxygenase pathway. The class given is biochemical.
Series [7] has as its system carrageenan pleurisy (3 hr exudate volume). The series can be described thus: Local anti-inflammatory activity: Carrageenan Pleurisy Assay (CPA), intrapleural. The class given is in vivo, rat. As to conditions: 3 hr Vol. An excerpt:
Local Anti-Inflammatory Activity of 3-Deazaadenosine: Carrageenan Pleurisy Assay (CPA)
Following the procedure described by Vinegar et al., Eur. J. Rheum. Inflam. […] There were 5 animals in each drug-treated group and the control group.

Series [8] is described as follows: Antipyretic activity. As to conditions: in vivo.
Series [9] in a line: Half life. To be noted: in vivo.
Series [10] is described as follows: Water solubility. The class given is physicochemical.
The conditions of series [11]: in vivo; cited from earlier work.
Series [12] in a line: Analgesic activity. As to conditions: in vivo.
Series [13] deals with carrageenan pleurisy (3 hour pleural exudate volume). Nature of the series: Duration of action of anti-inflammatory activity (Carrageenan Pleurisy Assay). The series is classed as in vivo, rat. To be noted: for duration of action (time of drug administration prior to carrageenan injection at which inhibition of 3 hour pleural exudate volume declined to 40%): single oral pretreating dose. The method, then: Following the procedure previously described by Vinegar et al. in Proc. Soc. Exp. Biol. Med., 143, 711 (1973) and recently modified (Vinegar et al., Eur. J. Rheum. Inflam. 1, 204 (1978)) the acute anti-inflammatory activity of 3-deazaadenosine was compared with that of known anti-inflammatory drugs. The average 3 hr exudate volume for each drug-treated group was determined and the % inhibition relative to solvent-fed control animals calculated, the ED50 (mg/kg of body wt) being the dose required to reduce the 3 hr exudate volume by 50%. There were 5 animals in each drug-treated group and the control group.
Duration of action of anti-inflammatory activity of 3-deazaadenosine
By means of the Carrageenan Pleurisy Assay of Example 1 the duration of action of the test compounds after a single oral pretreating dose was determined. For 3-deazaadenosine the effect lasted for 14.9 hours at 6 mg/kg (p.o.) whilst for aspirin (150 mg/kg p.o.) and acetaminophen (220 mg/kg p.o.) the effect lasted […] and 2 hours, respectively. This value represents the time (hours) of drug administration prior to the injection of carrageenan in which the inhibition of the 3 hour pleural exudate volume declined to 40%.

The test system of series [14] is immune response. To be noted: in vivo; cited from earlier work.
Series [15] can be described thus: Side effects (gastric damage, platelet aggregation, steroid side effects).
Series [16] has as its system liver. The series can be described thus: Liver damage in animal models. The series is classed as in vivo. To be noted: in the animal models used.

As for `C[C@]12C=CC(=O)C=C1CC[C@@H]1[C@@H]2[C@@H](O)C[C@@]2(C)[C@H]1CC[C@]2(O)C(=O)CO` [Prednisolone, reference compound], the ED25 in series [1] came out at 0.2 mg/kg/day. Moreover, in series [2], the ED50 came to 1 mg/kg.

Regarding `Nc1nccc2c1ncn2[C@@H]1O[C@H](CO)[C@@H](O)[C@H]1O` [3-Deazaadenosine, 4-amino-1-β-D-ribofuranosyl-1H-imidazo[4,5-c]-pyridine], the therapeutic index result in [3] is recorded as “high”. Moreover, the “anti-inflammatory effectiveness by route” value in series [4] is “effective orally, systemically and locally”. For the same compound, in series [5], the “inhibition of prostaglandin metabolism via lipoxygenase pathway” value is recorded as “does not inhibit”. For the same compound, the “inhibition of prostaglandin metabolism via cyclooxygenase pathway” value in [6] is “does not inhibit”. The results for the ED50 in series [7] and in series [2] (in diet from day 1 to day 16) were 0.05 mg/rat and 8 ± 2.8 mg/kg, respectively. Moreover, the antipyretic activity result in [8] is reported as “not antipyretic”. Further, in [9], the half life entry is listed as “short”. For the same compound, in [10], the water solubility entry is “high”. In addition, the “dose required for antiviral activity” value in series [11] is 100-200 mg/kg per day. For the same compound, the “analgesic activity per se” value in series [12] is “has not analgesic activity per se”. Moreover, the “duration of action (time of drug administration prior to carrageenan injection at which inhibition of 3 hour pleural exudate volume declined to 40%)” value in [13] (6 mg/kg p.o.) was 14.9 h. For the same compound, the duration of action result in series [13] (general statement, no dose given) is reported as “about 15 hours”. Besides, the “dose required for immunesuppression” value in [14] is listed as “more than 30 mg/kg”. Besides, in [15], the “side effects of the anti-inflammatory steroids” value is on record as “free of the side effects of the anti-inflammatory steroids”. For the same compound, the “side effects associated with prostaglandin inhibitors (gastric damage, inhibition of platelet aggregation)” value in series [15] (inferred from lack of inhibition of prostaglandin metabolism) is given as “free of the side effects”. The liver damage entry in series [16] was “does not cause liver damage”. Also, in series [1] (from day 21 to day 42, parentheses indicate an approximate value), the ED25 is about 18 mg/kg/day. For the same compound, in series [1] (result in words), the “inhibition of established adjuvant arthritis” value is “inhibit both developing and established adjuvant arthritis”. Further, the “inhibition of developing adjuvant arthritis” value in series [2] (result in words) is “inhibit both developing and established adjuvant arthritis”.

On to `CC(=O)Oc1ccccc1C(=O)O` [Aspirin, reference compound], for which the ED50 in series [7] turned out to be 0.04 mg/rat; in [2], 150 ± 53.1 mg/kg. Also, the “duration of action (time of drug administration prior to carrageenan injection at which inhibition of 3 hour pleural exudate volume declined to 40%)” value in series [13] (150 mg/kg p.o.) was found to be 35 h. In series [1], the ED25 is under 150 mg/kg/day.

In series [7], `C[C@]12CCC(=O)C=C1CC[C@@H]1[C@@H]2[C@@H](O)C[C@@]2(C)[C@H]1CC[C@]2(O)C(=O)CO` [Hydrocortisone] displayed an ED50 of under 0.1 mg/rat.

With `CC(=O)Nc1ccc(O)cc1` [acetaminophen, reference compound], the “duration of action (time of drug administration prior to carrageenan injection at which inhibition of 3 hour pleural exudate volume declined to 40%)” value in series [13] (220 mg/kg p.o.) amounted to 2 h. In addition, the liver damage result in [16] is recorded as “cause liver damage”.
